Reference: paper PMC11842588, “A first-in-class selective inhibitor of ERK1/2 and ERK5 overcomes drug resistance with a single-molecule strategy” (Signal Transduction and Targeted Therapy, 2025)

How the values were obtained:
Test in all cases: Kinase profiling
Type in all cases: biochemical
ALK1(h) = target: T1, ALK1(h) (Homo sapiens, UniProt P37023)
T1 construct: purchased Eurofins Cerep SA (KinaseProfiler)
Protocol: (§1) 380 kinases inhibitory activities of SKLB-D18 were conducted by Eurofins Cerep SA. The result was illustrated by kinase tree (http://www.kinhub.org/kinmap/).

ARK5(h) = target: T2, ARK5(h) (Homo sapiens, UniProt O60285)
T2 construct: purchased Eurofins Cerep SA (KinaseProfiler)
Protocol: as §1

Aurora-B(h) = target: T3, Aurora-B(h) (Homo sapiens, UniProt Q96GD4)
T3 construct: purchased Eurofins Cerep SA (KinaseProfiler)
Protocol: as §1

Blk(h) = target: T4, Blk(h) (Homo sapiens, UniProt P51451)
T4 construct: purchased Eurofins Cerep SA (KinaseProfiler)
Protocol: as §1

BrSK1(h) = target: T5, BrSK1(h) (Homo sapiens, UniProt Q8TDC3)
T5 construct: purchased Eurofins Cerep SA (KinaseProfiler)
Protocol: as §1

CDK18/cyclinY(h) = target: T6, CDK18/cyclinY(h) (Homo sapiens, UniProt Q07002)
T6 construct: purchased Eurofins Cerep SA (KinaseProfiler)
T6 sequence (Q07002 whole entry): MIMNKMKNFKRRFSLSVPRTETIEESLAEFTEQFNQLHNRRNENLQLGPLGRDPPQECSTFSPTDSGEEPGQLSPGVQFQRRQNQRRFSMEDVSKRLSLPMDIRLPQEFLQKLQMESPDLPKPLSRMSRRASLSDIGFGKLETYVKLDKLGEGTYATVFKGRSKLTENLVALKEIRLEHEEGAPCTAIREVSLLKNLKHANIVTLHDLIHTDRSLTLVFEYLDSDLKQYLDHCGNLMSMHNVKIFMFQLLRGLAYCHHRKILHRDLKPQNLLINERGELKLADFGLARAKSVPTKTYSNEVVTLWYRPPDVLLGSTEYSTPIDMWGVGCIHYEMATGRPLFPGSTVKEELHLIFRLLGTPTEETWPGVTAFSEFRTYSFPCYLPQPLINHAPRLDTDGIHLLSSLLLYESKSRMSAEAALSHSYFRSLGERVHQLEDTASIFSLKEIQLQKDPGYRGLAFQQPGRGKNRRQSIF
T6 sequence (Q8ND76 whole entry partner): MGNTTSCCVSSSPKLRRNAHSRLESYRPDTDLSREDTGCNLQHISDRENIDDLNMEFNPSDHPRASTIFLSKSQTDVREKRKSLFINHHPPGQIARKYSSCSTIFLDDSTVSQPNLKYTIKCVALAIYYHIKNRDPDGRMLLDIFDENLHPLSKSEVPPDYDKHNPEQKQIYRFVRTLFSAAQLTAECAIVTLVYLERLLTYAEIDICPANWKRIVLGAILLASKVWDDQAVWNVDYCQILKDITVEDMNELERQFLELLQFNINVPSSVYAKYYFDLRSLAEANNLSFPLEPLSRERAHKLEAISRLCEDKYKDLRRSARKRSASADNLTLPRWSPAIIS
Protocol: as §1

CDK6/cyclinD3(h) = target: T7, CDK6/cyclinD3(h) (Homo sapiens, UniProt Q00534)
T7 construct: purchased Eurofins Cerep SA (KinaseProfiler)
Protocol: as §1

CDKL4(h) = target: T8, CDKL4(h) (Homo sapiens, UniProt Q5MAI5)
T8 construct: purchased Eurofins Cerep SA (KinaseProfiler)
Protocol: as §1

CK1γ3(h) = target: T9, CK1γ3(h) (Homo sapiens, UniProt Q9Y6M4)
T9 construct: purchased Eurofins Cerep SA (KinaseProfiler)
Protocol: as §1

CLIK1(h) = target: T10, CLIK1(h) (Homo sapiens, UniProt Q8TDR2)
T10 construct: purchased Eurofins Cerep SA (KinaseProfiler)
Protocol: as §1

CLK3(h) = target: T11, CLK3(h) (Homo sapiens, UniProt P49761)
T11 construct: purchased Eurofins Cerep SA (KinaseProfiler)
Protocol: as §1

DNA-PK(h) = target: T12, DNA-PK(h) (Homo sapiens, UniProt P78527)
T12 construct: purchased Eurofins Cerep SA (KinaseProfiler)
Protocol: as §1

DYRK3(h) = target: T13, DYRK3(h) (Homo sapiens, UniProt O43781)
T13 construct: purchased Eurofins Cerep SA (KinaseProfiler)
Protocol: as §1

EphB3(h) = target: T14, EphB3(h) (Homo sapiens, UniProt P54753)
T14 construct: purchased Eurofins Cerep SA (KinaseProfiler)
Protocol: as §1

FGFR2(h) = target: T15, FGFR2(h) (Homo sapiens, UniProt P21802)
T15 construct: purchased Eurofins Cerep SA (KinaseProfiler)
Protocol: as §1

GRK1(h) = target: T16, GRK1(h) (Homo sapiens, UniProt Q15835)
T16 construct: purchased Eurofins Cerep SA (KinaseProfiler)
Protocol: as §1

HIPK3(h) = target: T17, HIPK3(h) (Homo sapiens, UniProt Q9H422)
T17 construct: purchased Eurofins Cerep SA (KinaseProfiler)
Protocol: as §1

LIMK1(h) = target: T18, LIMK1(h) (Homo sapiens, UniProt P53667)
T18 construct: purchased Eurofins Cerep SA (KinaseProfiler)
Protocol: as §1

Lck(h) activated = target: T19, Lck(h) activated (Homo sapiens, UniProt P06239)
T19 construct: purchased Eurofins Cerep SA (KinaseProfiler)
T19 sequence (P06239 whole entry): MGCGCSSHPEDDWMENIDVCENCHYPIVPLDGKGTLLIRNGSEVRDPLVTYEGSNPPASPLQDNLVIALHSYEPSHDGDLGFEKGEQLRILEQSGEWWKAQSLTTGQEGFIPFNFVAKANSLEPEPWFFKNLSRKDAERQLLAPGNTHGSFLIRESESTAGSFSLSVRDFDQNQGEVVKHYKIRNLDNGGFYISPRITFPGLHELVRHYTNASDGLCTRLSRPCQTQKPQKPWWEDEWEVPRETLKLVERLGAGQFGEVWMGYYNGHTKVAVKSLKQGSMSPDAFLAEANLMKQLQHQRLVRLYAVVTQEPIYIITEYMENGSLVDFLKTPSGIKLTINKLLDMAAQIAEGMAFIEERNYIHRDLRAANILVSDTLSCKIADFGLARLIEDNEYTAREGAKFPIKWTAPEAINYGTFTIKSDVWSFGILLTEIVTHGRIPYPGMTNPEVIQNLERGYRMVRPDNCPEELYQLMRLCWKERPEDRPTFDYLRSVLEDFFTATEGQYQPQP
Protocol: as §1

MAP4K3(h) = target: T20, MAP4K3(h) (Homo sapiens, UniProt Q8IVH8)
T20 construct: purchased Eurofins Cerep SA (KinaseProfiler)
T20 sequence (Q8IVH8 whole entry): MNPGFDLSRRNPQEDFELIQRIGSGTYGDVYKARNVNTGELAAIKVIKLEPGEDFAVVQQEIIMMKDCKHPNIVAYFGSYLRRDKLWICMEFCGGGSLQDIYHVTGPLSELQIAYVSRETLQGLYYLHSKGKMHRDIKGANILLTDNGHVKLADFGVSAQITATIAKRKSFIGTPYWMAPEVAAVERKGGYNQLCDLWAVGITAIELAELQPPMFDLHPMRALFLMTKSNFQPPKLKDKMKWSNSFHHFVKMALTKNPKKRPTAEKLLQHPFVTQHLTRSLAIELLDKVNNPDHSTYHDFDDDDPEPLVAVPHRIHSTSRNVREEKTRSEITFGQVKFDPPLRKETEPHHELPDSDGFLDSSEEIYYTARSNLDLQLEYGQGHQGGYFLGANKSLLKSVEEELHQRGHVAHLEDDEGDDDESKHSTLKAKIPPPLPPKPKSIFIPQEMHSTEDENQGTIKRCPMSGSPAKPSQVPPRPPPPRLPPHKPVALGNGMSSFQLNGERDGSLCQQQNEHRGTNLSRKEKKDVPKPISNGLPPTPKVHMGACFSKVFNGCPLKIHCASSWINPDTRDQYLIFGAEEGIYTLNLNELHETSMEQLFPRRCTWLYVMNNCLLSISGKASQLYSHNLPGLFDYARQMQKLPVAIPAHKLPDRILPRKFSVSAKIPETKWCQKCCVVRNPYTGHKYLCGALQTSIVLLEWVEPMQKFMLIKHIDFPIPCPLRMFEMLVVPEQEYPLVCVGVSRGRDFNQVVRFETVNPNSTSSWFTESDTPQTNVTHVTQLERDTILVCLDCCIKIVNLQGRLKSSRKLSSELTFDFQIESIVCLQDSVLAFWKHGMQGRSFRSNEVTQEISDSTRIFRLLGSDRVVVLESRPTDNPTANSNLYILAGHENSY
Protocol: as §1

MAPKAP-K2(h) = target: T21, MAPKAP-K2(h) (Homo sapiens, UniProt P49137)
T21 construct: purchased Eurofins Cerep SA (KinaseProfiler)
Protocol: as §1

MELK(h) = target: T22, MELK(h) (Homo sapiens, UniProt Q14680)
T22 construct: purchased Eurofins Cerep SA (KinaseProfiler)
Protocol: as §1

MRCKβ(h) = target: T23, MRCKβ(h) (Homo sapiens, UniProt Q9Y5S2)
T23 construct: purchased Eurofins Cerep SA (KinaseProfiler)
Protocol: as §1

NEK1(h) = target: T24, NEK1(h) (Homo sapiens, UniProt Q96PY6)
T24 construct: purchased Eurofins Cerep SA (KinaseProfiler)
Protocol: as §1

NEK2(h) = target: T25, NEK2(h) (Homo sapiens, UniProt P51955)
T25 construct: purchased Eurofins Cerep SA (KinaseProfiler)
Protocol: as §1

NEK3(h) = target: T26, NEK3(h) (Homo sapiens, UniProt P51956)
T26 construct: purchased Eurofins Cerep SA (KinaseProfiler)
T26 sequence (P51956 whole entry): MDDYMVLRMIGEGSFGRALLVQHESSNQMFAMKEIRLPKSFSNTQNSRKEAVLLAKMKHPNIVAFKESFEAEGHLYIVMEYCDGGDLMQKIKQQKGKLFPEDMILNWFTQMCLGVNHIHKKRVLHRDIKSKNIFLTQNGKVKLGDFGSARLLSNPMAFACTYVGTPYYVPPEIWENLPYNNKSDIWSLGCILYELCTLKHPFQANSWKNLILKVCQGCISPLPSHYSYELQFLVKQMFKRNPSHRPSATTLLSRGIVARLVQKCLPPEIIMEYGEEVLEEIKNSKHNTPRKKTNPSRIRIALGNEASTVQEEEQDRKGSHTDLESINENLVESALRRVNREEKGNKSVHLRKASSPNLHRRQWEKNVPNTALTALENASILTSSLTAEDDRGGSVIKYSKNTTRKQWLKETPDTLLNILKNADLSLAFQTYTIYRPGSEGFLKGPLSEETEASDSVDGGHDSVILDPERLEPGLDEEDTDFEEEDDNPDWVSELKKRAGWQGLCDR
Protocol: as §1

PAK2(h) = target: T27, PAK2(h) (Homo sapiens, UniProt Q13177)
T27 construct: purchased Eurofins Cerep SA (KinaseProfiler)
Protocol: as §1

PIP5K1g(h) = target: T28, PIP5K1g(h) (Homo sapiens, UniProt O60331)
T28 construct: purchased Eurofins Cerep SA (KinaseProfiler)
T28 sequence (O60331 whole entry): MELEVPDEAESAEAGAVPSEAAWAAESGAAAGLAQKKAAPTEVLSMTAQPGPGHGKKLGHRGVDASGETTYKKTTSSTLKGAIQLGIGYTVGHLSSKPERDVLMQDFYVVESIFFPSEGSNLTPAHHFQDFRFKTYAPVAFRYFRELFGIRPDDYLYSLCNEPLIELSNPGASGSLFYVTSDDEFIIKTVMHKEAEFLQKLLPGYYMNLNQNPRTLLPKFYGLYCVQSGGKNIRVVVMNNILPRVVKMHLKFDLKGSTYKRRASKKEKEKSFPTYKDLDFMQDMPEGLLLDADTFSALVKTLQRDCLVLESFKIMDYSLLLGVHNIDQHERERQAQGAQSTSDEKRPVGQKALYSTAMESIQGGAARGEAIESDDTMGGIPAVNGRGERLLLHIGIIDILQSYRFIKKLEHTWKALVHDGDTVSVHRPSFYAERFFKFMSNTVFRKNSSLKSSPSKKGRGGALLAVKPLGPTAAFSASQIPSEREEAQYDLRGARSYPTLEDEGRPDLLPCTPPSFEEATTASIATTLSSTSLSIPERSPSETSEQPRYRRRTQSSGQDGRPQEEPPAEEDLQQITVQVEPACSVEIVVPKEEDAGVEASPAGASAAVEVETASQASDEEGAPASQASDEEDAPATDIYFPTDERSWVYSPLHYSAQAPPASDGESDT
Protocol: as §1

PKCα(h) = target: T29, PKCα(h) (Homo sapiens, UniProt P17252)
T29 construct: purchased Eurofins Cerep SA (KinaseProfiler)
Protocol: as §1

PKCζ(h) = target: T30, PKCζ(h) (Homo sapiens, UniProt Q05513)
T30 construct: purchased Eurofins Cerep SA (KinaseProfiler)
Protocol: as §1

PKCη(h) = target: T31, PKCη(h) (Homo sapiens, UniProt P24723)
T31 construct: purchased Eurofins Cerep SA (KinaseProfiler)
Protocol: as §1

ROCK-I(h) = target: T32, ROCK-I(h) (Homo sapiens, UniProt Q13464)
T32 construct: purchased Eurofins Cerep SA (KinaseProfiler)
T32 sequence (Q13464 whole entry): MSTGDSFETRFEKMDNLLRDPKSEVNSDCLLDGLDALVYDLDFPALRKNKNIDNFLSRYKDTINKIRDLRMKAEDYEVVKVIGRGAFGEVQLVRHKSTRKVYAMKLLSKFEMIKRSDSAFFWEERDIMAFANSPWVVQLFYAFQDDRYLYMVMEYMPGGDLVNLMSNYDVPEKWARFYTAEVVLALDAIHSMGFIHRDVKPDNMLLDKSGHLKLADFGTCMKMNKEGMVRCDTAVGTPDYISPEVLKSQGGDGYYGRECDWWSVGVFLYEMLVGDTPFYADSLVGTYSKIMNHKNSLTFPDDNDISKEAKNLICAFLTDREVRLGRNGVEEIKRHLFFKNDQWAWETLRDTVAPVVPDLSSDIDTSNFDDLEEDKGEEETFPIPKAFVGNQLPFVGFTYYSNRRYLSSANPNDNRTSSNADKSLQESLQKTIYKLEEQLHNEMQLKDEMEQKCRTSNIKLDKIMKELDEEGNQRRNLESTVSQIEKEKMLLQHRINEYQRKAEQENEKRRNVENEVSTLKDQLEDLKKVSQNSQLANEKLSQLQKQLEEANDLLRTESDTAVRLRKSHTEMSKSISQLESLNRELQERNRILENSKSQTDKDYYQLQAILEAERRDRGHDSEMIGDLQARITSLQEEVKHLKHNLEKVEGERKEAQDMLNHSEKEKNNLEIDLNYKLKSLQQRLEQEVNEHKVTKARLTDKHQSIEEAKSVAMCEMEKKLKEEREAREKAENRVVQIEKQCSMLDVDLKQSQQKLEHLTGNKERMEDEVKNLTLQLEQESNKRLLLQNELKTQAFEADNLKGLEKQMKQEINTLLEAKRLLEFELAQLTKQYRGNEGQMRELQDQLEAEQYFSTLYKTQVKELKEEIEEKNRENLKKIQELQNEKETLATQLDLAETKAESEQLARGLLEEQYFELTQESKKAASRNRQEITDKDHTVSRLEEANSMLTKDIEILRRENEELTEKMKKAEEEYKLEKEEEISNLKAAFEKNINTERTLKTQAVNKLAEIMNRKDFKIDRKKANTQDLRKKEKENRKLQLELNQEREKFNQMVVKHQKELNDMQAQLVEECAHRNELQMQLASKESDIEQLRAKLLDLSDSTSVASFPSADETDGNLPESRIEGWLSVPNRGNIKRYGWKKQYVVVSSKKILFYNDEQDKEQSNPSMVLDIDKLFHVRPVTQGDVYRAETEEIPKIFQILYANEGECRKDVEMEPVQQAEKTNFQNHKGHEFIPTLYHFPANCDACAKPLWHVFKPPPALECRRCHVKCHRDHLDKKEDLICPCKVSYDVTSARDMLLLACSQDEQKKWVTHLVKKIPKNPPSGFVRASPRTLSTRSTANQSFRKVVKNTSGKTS
Protocol: as §1

ROCK-II(h) = target: T33, ROCK-II(h) (Homo sapiens, UniProt O75116)
T33 construct: purchased Eurofins Cerep SA (KinaseProfiler)
Protocol: as §1

Rsk2(h) = target: T34, Rsk2(h) (Homo sapiens, UniProt P51812)
T34 construct: purchased Eurofins Cerep SA (KinaseProfiler)
Protocol: as §1

TAK1(h) = target: T35, TAK1(h) (Homo sapiens, UniProt O43318)
T35 construct: purchased Eurofins Cerep SA (KinaseProfiler)
Protocol: as §1

TSSK2(h) = target: T36, TSSK2(h) (Homo sapiens, UniProt Q96PF2)
T36 construct: purchased Eurofins Cerep SA (KinaseProfiler)
Protocol: as §1

TSSK3(h) = target: T37, TSSK3(h) (Homo sapiens, UniProt Q96PN8)
T37 construct: purchased Eurofins Cerep SA (KinaseProfiler)
T37 sequence (Q96PN8 whole entry): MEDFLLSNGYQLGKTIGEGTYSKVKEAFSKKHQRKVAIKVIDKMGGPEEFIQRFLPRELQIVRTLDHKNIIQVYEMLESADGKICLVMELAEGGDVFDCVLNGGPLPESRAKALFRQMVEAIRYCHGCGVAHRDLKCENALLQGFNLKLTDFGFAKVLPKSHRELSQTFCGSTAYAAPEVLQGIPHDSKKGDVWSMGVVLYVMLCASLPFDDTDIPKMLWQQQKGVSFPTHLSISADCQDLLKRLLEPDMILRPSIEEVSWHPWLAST
Protocol: as §1

TSSK4(h) = target: T38, TSSK4(h) (Homo sapiens, UniProt Q6SA08)
T38 construct: purchased Eurofins Cerep SA (KinaseProfiler)
Protocol: as §1

TrkB(h) = target: T39, TrkB(h) (Homo sapiens, UniProt Q16620)
T39 construct: purchased Eurofins Cerep SA (KinaseProfiler)
Protocol: as §1

Wee1(h) = target: T40, Wee1(h) (Homo sapiens, UniProt P30291)
T40 construct: purchased Eurofins Cerep SA (KinaseProfiler)
Protocol: as §1

mTOR(h) = target: T41, mTOR(h) (Homo sapiens, UniProt P42345)
T41 construct: purchased Eurofins Cerep SA (KinaseProfiler)
Protocol: as §1

## CN(C)Cc1cccc(Nc2ncc(Cl)c(-c3csc(C(=O)NN4CCOCC4)c3)n2)c1 [SKLB-D18, 4-(5-chloro-2-((3-((dimethylamino)methyl)phenyl)amino)pyrimidin-4-yl)-N-morpholinothiophene-2-carboxamide]
ALK1(h)
  inhibition at 1 µM: 20%
ARK5(h)
  inhibition at 1 µM: 72%
Aurora-B(h)
  inhibition at 1 µM: 66%
Blk(h)
  inhibition at 1 µM: -5%
BrSK1(h)
  inhibition at 1 µM: 2%
CDK18/cyclinY(h)
  inhibition at 1 µM: 48%
CDK6/cyclinD3(h)
  inhibition at 1 µM: 47%
CDKL4(h)
  inhibition at 1 µM: 66%
CK1γ3(h)
  inhibition at 1 µM: 14%
CLIK1(h)
  inhibition at 1 µM: 12%
CLK3(h)
  inhibition at 1 µM: 11%
DNA-PK(h)
  inhibition at 1 µM: 10%
DYRK3(h)
  inhibition at 1 µM: 49%
EphB3(h)
  inhibition at 1 µM: 3%
FGFR2(h)
  inhibition at 1 µM: 55%
GRK1(h)
  inhibition at 1 µM: 9%
HIPK3(h)
  inhibition at 1 µM: 64%
LIMK1(h)
  inhibition at 1 µM: 20%
Lck(h) activated
  inhibition at 1 µM: 68%
MAP4K3(h)
  inhibition at 1 µM: 60%
MAPKAP-K2(h)
  inhibition at 1 µM: 1%
MELK(h)
  inhibition at 1 µM: 62%
MRCKβ(h)
  inhibition at 1 µM: 15%
NEK1(h)
  inhibition at 1 µM: 48%
NEK2(h)
  inhibition at 1 µM: 42%
NEK3(h)
  inhibition at 1 µM: 63%
PAK2(h)
  inhibition at 1 µM: 12%
PIP5K1g(h)
  inhibition at 1 µM: -4%
PKCα(h)
  inhibition at 1 µM: 21%
PKCζ(h)
  inhibition at 1 µM: -15%
PKCη(h)
  inhibition at 1 µM: 16%
ROCK-I(h)
  inhibition at 1 µM: 10%
ROCK-II(h)
  inhibition at 1 µM: 34%
Rsk2(h)
  inhibition at 1 µM: 41%
TAK1(h)
  inhibition at 1 µM: 64%
TSSK2(h)
  inhibition at 1 µM: -2%
TSSK3(h)
  inhibition at 1 µM: 53%
TSSK4(h)
  inhibition at 1 µM: 36%
TrkB(h)
  inhibition at 1 µM: 46%
Wee1(h)
  inhibition at 1 µM: 48%
mTOR(h)
  inhibition at 1 µM: -4%
